Measured values as given in patent US11390616B2 (BRISTOL-MYERS SQUIBB COMPANY, priority 2015, dated 2022).

Molecular target: T1, human APJ receptor (Homo sapiens, UniProt P35414)
T1 construct: expressed in transfected cells; host or cells: HEK293
T1 sequence (P35414 1-380): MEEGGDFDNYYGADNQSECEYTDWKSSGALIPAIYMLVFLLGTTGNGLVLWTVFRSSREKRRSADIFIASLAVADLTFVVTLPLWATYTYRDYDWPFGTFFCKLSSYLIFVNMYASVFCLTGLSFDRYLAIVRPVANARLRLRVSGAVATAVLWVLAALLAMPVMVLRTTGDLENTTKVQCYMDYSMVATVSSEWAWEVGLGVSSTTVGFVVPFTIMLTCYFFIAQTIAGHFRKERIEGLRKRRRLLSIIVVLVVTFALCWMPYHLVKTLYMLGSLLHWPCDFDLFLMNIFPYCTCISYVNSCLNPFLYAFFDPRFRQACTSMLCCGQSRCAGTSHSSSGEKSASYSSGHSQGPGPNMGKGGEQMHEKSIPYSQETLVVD
Assay: Intracellular cAMP accumulation assay (APJ hcAMP, HTRF)
Format: cell-based
Conditions: HEK293 cells stably expressing human APJ receptor; inhibition of forskolin-mediated cAMP production; read-out: APJ cAMP Potency range
How it was run: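 Inhibition of forskolin (2 μM)-driven cAMP, with […], measured by HTRF after 30 min room-temperature compound exposure of stably transfected HEK293 cells. cAMP read from a standard curve; variable-slope fit gives EC50, and maximal inhibition is normalised to (Pyr1)apelin-13 as 100%.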

EC50: 0.01 to 10 nM
SMILES: CC[C@@H](c1cc(F)cc(F)c1)n1c(-c2ccn(CC)n2)nc(=O)c(Cc2ccc(-c3ccncc3C)cc2)c1O [Example 136, 1-[(1S)-1-(3,5-difluorophenyl)propyl]-2-(1-ethyl-1H-pyrazol-3-yl)-6-hydroxy-5-{[4-(3-methylpyridin-4-yl)phenyl]methyl}-1,4-dihydropyrimidin-4-one]
